Measurements published in patent US11963975B2, “Therapeutic targets for facioscapulohumeral muscular dystrophy” (University of Massachusetts, priority 2016, dated 2024).
“And” between values parts separate entries of the source, which are not always exact repeats. Equal values may be shown once.

Assays:
[1] = tested on: primary myoblasts isolated from FSHD1-affected and FSHD-asymptomatic patients; assay: small molecule treatment of primary myoblasts, DUX4 expression; assay type: cell-based, human; conditions: alone, or in combination; FIG. 15
Description: Trichostatin A (TSA) is a histone deacetylase inhibitor, 5-aza-2′-deoxycytidine (5′ADC) is a DNA methylation inhibitor and chaetocin (CH) is a histone methyltransferase inhibitor.

[2] = tested on: healthy human skeletal muscle myoblasts (HSMM); assay: JQ1 treatment of healthy myoblasts, myogenic gene expression; assay type: cell-based; conditions: FIG. 17
Description: (§1) DUX4 expression is induced during myogenic differentiation, and blocking or slowing down this process, as the case with JQ1, give the appearance of inhibiting DUX4 expression, when in fact it is merely altering the kinetics of myoginc differentiation. Importantly, these genes are misregulated by JQ1 in both FSHD and healthy human skeletal muscle myoblasts (HSMM) (FIG. 17). Therefore, JQ1 is an example of a non-specific small molecule and not appropriate for use as an FSHD therapeutic.

[3] = tested on: primary FSHD muscle cells (09Abic); assay: JQ1 treatment time course, gene expression; assay type: cell-based, human
Description: as §1

[4] = tested on: skeletal myocytes from an FSHD1 patient (05Abic); assay: shRNA knockdown screen in terminally differentiated FSHD myocytes, gene expression by qRT-PCR; assay type: cell-based, human; conditions: harvested 4 days after second infection, Mock = 1
Procedure: A screen to identify genes involved in DUX4 expression (e.g., when the expression of these genes is reduced in FSHD muscle cells, DUX4 expression also decreases) was performed. Briefly, primary differentiated myocytes derived from subjects having FSHD were treated with shRNA targeting candidate genes and the expression level of pathogenic DUX4-fl mRNA was quantified. The expression levels of other myogenic regulators (e.g., Myogenin, MyoD, MyHD) and other targets (e.g., FRG1, UTRN, and 18S) were also quantified to assess indirect effects of DUX4 knockdown. A sample screening protocol is shown below:
• 1. Expand low passage primary FSHD myoblasts. • 2. Plate into 6-well plates. • 3. Allow cells to reach confluence and differentiate (approximately 48 hours). • 4. Infect cells with lentiviral shRNA construct and incubate for 24 hours. • 5. Re-infect cells with lentiviral shRNA construct. • 6. Harvest cells 4 days after second infection. • 7. Extract RNA from cells and assay for expression level of DUX4-fl and other genes of interest.
(§2) Myogenic cultures derived from biceps muscles of unrelated FSHD1 patients (05Abic, 17Abic, and 18Abic) were grown in Ham's F-10 medium supplemented with 20% FBS (Hyclone), 0.5% chick embryo extract, 1% antibiotics & antimycotics, and 1.2 mM CaCl2. 293T packaging cells were grown in DMEM+10% FBS+0.1% […]. For shRNA knockdown experiments, 293T cells were transfected with lentiviral packaging plasmid (pCMV-dR8.91), envelope plasmid (VSV-G), and SIGMA MISSION shRNA expression plasmids. Lentiviral supernatants were harvested, aliquoted, and frozen at −80° C. FSHD1 skeletal myoblasts were seeded in collagen-coated 6-well plates (for gene expression analysis) or 10-cm plates (for ChIP) and grown to confluence, then allowed to self-differentiate in growth medium for ˜48 h. Cells were subjected to two rounds of infection. Briefly, lentiviral supernatants+8 μg/ml polybrene were added to cultures and the plates were incubated for 15 min at 37° C., then wrapped well with parafilm before centrifuging for 30 min at 1100 g (32° C.). Following centrifugation, the viral supernatants were replaced with growth medium. Cells were maintained in growth medium and harvested 4 d after the last round of infection. For dCas9-KRAB infections, 293T cells were transfected with lentiviral packaging plasmid (pCMV-dR8.91), envelope plasmid (VSV-G), and either dCas9-KRAB expression plasmid (#50919) or sgRNA expression plasmid using the TransIT-LT1 transfection reagent. Lentiviral supernatants were harvested at […] from 72-108 h post-transfection. FSHD1 skeletal myoblasts were seeded in collagen-coated 6-well plates and grown to ˜80% confluency, then subjected to four serial infections over two days. Cells were allowed to recover for ˜8 h in growth medium prior to the next round of infection. Following the last infection, these self-differentiated cultures were maintained in growth medium for 72 h prior to harvesting.
Total RNAs were extracted using TRIzol (Invitrogen) and purified using the RNeasy Mini kit (Qiagen) after on-column DNase I digestion. Total RNA (2 μg) was used for cDNA synthesis using Superscript III Reverse Transcriptase (Invitrogen), and 200 ng of cDNA were used for qPCR analysis.
The D4Z4 macrosatellite array that encodes DUX4 is normally under strong epigenetic repression in adult somatic cells. […] Thirty-six candidate activators of DUX4 fl were investigated as potential drug targets (Table 3). These candidates include transcriptional regulators, chromatin remodelers, and histone modifying enzymes. For the initial screen, skeletal myocytes from an FSHD1 patient (05Abic) which express consistent and relatively high levels of DUX4 fl when terminally differentiated were used. Using lentivirus-encoded shRNAs, each candidate was knocked down in terminally differentiated cultures, then cells were harvested four days later and assessed for expression of DUX4 fl and other genes.

[5] = tested on: FSHD myocytes (05Abic, 18Abic, and 17Abic); assay: shRNA knockdown across FSHD cohorts, DUX4-fl by qRT-PCR; assay type: cell-based, human; conditions: FIG. 11F
Description: FIGS. 11A-11F show shRNA knockdown of epigenetic regulators reduces expression of DUX4-fl in FSHD myocytes. Differentiated FSHD myocytes were infected in two serial rounds with shRNAs to ASH1L (FIG. 11A), BAZ1A (FIG. 11B), BRD2 (FIG. 11C), KDM4C (FIG. 11D), SMARCA5 (FIG. 11E), or a scrambled control. Four days later, cells were harvested for analysis of the full-length DUX4 isoform (DUX4-fl), Myogenin (Myog), MyoD, Myosin heavy chain 1 (MyHC), FRG1, Utrophin (Utr), and 18S gene expression by qRT-PCR. […] In all panels, relative mRNA expression for mock or control-infected cells is set to 1. Data are plotted as the mean+SD value of technical replicates.
as §2
Total RNAs were extracted using TRIzol (Invitrogen) and purified using the RNeasy Mini kit (Qiagen) after on-column DNase I digestion. […]

| Compound | DUX4 expression (in words) [1] | myogenic genes (Myog, myoD, MyHC) (in words) [2] | DUX4 expression (in words) ([3]; 09Abic) | expression of downstream genes TRIM43 and ZSCAN4 (in words) ([3]; 09Abic) | expression of myogenic regulatory genes myogenin (Myog), myoD, myosin heavy chain (MyHC), and myostatin (Myost) (in words) ([3]; time course of treatment, FIG. 16) | 18S relative gene expression [4] | D4-fl relative gene expression [4] | FRG1 relative gene expression [4] | MyHC relative gene expression [4] | MyoD relative gene expression [4] | Myog relative gene expression [4] | Utr relative gene expression [4] | DUX4-fl expression (in words) [5] |
| --- | --- | --- | --- | --- | --- | --- | --- | --- | --- | --- | --- | --- | --- |
| Nc1ncn([C@H]2C[C@H](O)[C@@H](CO)O2)c(=O)n1 [5-aza-2′-deoxycytidine] | affect DUX4 expression |  |  |  |  |  |  |  |  |  |  |  |  |
| Cc1sc2c(c1C)C(c1ccc(Cl)cc1)=N[C@@H](CC(=O)OC(C)(C)C)c1nnc(C)n1-2 [JQ1] |  | misregulated | appears to inhibit | appears to inhibit | inhibiting the expression |  |  |  |  |  |  |  |  |
| CC(/C=C/C(=O)NO)=C\[C@@H](C)C(=O)c1ccc(N(C)C)cc1 [Trichostatin A] | affect DUX4 expression |  |  |  |  |  |  |  |  |  |  |  |  |
| PJ1: shRNA targeting ASH1L; SEQ ID NO: 4 (guide CCGGCGACATAAACTTGACATCTTTCTCGAGAAAGATGTCAAGTTTATGTCGTTTTT) |  |  |  |  |  | 1.372 | 0.3399 | 1.051 | 1.066 | 0.7238 | 1.795 | 0.6994 | reduce DUX4-fl expression |
| PJ2: shRNA targeting ASH1L; SEQ ID NO: 5 (guide CCGGCCTGCCAAATACCATAAGAAACTCGAGTTTCTTATGGTATTTGGCAGGTTTTT) |  |  |  |  |  | 1.311 | 0.1371 | 1.172 | 0.7221 | 0.8503 | 0.8845 | 0.815 |  |
| PJ3: shRNA targeting ASH1L; SEQ ID NO: 6 (guide CCGGCGTACTTTGTTTATCCCAGAACTCGAGTTCTGGGATAAACAAAGTACGTTTTT) |  |  |  |  |  | 1.185 | 0.2434 | 1.141 | 1.341 | 0.9895 | 0.7218 | 1.128 |  |
| PJ11: shRNA targeting BRD2; SEQ ID NO: 10 (guide CCGGCCCTTTGCTGTGACACTTCTTCTCGAGAAGAAGTGTCACAGCAAAGGGTTTTT) |  |  |  |  |  | 1.112 | 0.124 | 1.25 | 0.7342 | 0.9277 | 1.026 | 0.6067 | reduce DUX4-fl expression |
| PJ12: shRNA targeting BRD2; SEQ ID NO: 11 (guide CCGGGCCCTCTTTACGTGATTCAAACTCGAGTTTGAATCACGTAAAGAGGGCTTTTT) |  |  |  |  |  | 1.099 | 0.1127 | 1.178 | 0.7927 | 0.904 | 1.088 | 0.6755 |  |
| PJ73: shRNA targeting KDM4C; SEQ ID NO: 1 (guide CCGGGCCTCTGACATGCGATTTGAACTCGAGTTCAAATCGCATGTCAGAGGCTTTTT) |  |  |  |  |  | 1.253 | 0.1101 | 1.043 | 0.7968 | 0.9045 | 1.338 | 0.6393 |  |
| PJ74: shRNA targeting KDM4C; SEQ ID NO: 2 (guide CCGGGCAGAGAGTAATGGTGTGTTACTCGAGTAACACACCATTACTCTCTGCTTTTT) |  |  |  |  |  | 1.129 | 0.08801 | 1.211 | 0.7642 | 0.7621 | 1.81 | 0.7121 | reduce DUX4-fl expression |
| PJ75: shRNA targeting KDM4C; SEQ ID NO: 3 (CCGGGCCCAAGTCTTGGTATGCTATCTCGAGATAGCATACCAAGACTTGGGCTTTTT) |  |  |  |  |  | 0.9781 | 0.1812 | 0.7766 | 0.9826 | 1.048 | 1.318 | 1.018 |  |
| PJ152: shRNA targeting BAZ1A; SEQ ID NO: 9 (guide CCGGGCGATGAAGAAGAAGGTCAAACTCGAGTTTGACCTTCTTCTTCATCGCTTTTTG) |  |  |  |  |  | 1.312 | 0.1892 | 0.9047 | 0.8503 | 0.991 | 1.318 | 0.954 |  |
| PJ195: shRNA targeting SMARCA5; SEQ ID NO: 7 (guide CCGGGTTCTTTAATTTACGGGTCTTCTCGAGAAGACCCGTAAATTAAAGAACTTTTT) |  |  |  |  |  | 0.9905 | 0.168 | 0.9865 | 0.7803 | 0.8981 | 0.8003 | 1.024 |  |
| PJ196: shRNA targeting SMARCA5; SEQ ID NO: 8 (guide CCGGCCGGGCAAATAGATTCGAGTACTCGAGTACTCGAATCTATTTGCCCGGTTTTT) |  |  |  |  |  | 0.9807 and 1.048 | 0.1085 and 0.1967 | 0.8974 and 0.9209 | 0.469 and 0.5926 | 0.722 and 0.9103 | 0.9247 and 0.9293 | 0.8261 and 1.231 | reduce DUX4-fl expression |
